Like-named read-outs stand apart in the source and are kept apart here.
Tests used:
[1] = molecular target: single-chain tethered dimer of HIV protease (Human immunodeficiency virus 1, UniProt P04585); experiment: biochemical; assay type: biochemical; set-up: fused on or other part: A second copy of the same protease unit is joined to the first by a short peptide tether, giving one polypeptide
[2] = test system: HIV-1 (RF) in MT-2 cells; experiment: microbe, parasite or virus in culture; assay type: cell-based
Summary of the method: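 HIV-1 laboratory strains (RF, MN, IIIB) grown in H9 cells in RPMI 1640 with 5% FCS; infections in MT-2 cells. Viral RNA quantified by hybridization with biotinylated gag/pol capture probes on streptavidin plates and alkaline phosphatase-conjugated reporter probes; BH10 gag-pol in vitro transcripts serve as RNA standards.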

[3] = Table 2d, HIV protease inhibition, HPLC method, read-out: HPLC K1
[4] = read-out: HPLC K1, Table 2d, HIV protease inhibition, HPLC method
[5] = Human immunodeficiency virus 1, MT2, 48 h, Table 2d, HIV RNA assay, read-out: IC90
[6] = Table 2d, class symbols, read-out: HPLC K1
[7] = read-out: HPLC K1, Table 2d, class symbols
[8] = Human immunodeficiency virus 1, MT2, 48 h, Table 2d, class symbols, read-out: IC90

With `CS(=O)(=O)NCCCCCN1C(=O)N(CCCCCNS(C)(=O)=O)C(Cc2ccccc2)C(O)C(O)C1Cc1ccccc1` (stereo not shown) [15EN] the Ki [1, 3] was 10 to 1000 nM and the IC90 ([2]; Table 2d, HIV RNA assay) was “++/+ (The ++/+ is used in the cases where an IC90 was determined to be >50 μg/mL)”.

Compound `C[Si](C)(C)CCOCn1cncc1-c1cccc(CN2C(=O)N(Cc3cccc(-c4cncn4COCC[Si](C)(C)C)c3)C(Cc3ccccc3)C(O)C(O)C2Cc2ccccc2)c1` (stereo not shown) [Example 15BJ] has a Ki [1, 4] of under 10 nM and an IC90 [2, 5] of under 10 µg/mL.

For `Cc1cccc(CN2C(=O)N(Cc3cccc(O)c3)C(Cc3ccccc3)C(O)C(O)C2Cc2ccccc2)c1` (stereo not shown) [10J], the Ki [1, 6] was under 10 nM and the IC90 ([2]; Table 2d, class symbols) was “+++ (+++=<10 μg/mL)”.

`O=C1N(Cc2ccc(CO)cc2)C(Cc2ccccc2)C(O)C(O)C(Cc2ccccc2)N1Cc1ccccc1O` (stereo not shown) [15EA] was tested, and the Ki [1, 4] was under 10 nM and the IC90 [2, 5] was under 10 µg/mL.

In the case of `CC(C)(CO)CCCCN1C(=O)N(CCCCC(C)(C)CO)C(Cc2ccccc2)C(O)C(O)C1Cc1ccccc1` (stereo not shown) [15CP], the Ki [1, 3] is reported as 10 to 1000 nM and the IC90 ([2]; Table 2d, HIV RNA assay) is reported as “+++ (+++=<10 μg/mL)”.

With `O=C1N(Cc2cccc(CNO)c2)C(Cc2ccccc2)C(O)C(O)C(Cc2ccccc2)N1Cc1cccc(CNO)c1` (stereo not shown) [Example 9B] the Ki [1, 7] was 10 to 1000 nM and the IC90 [2, 8] was under 10 µg/mL.

For `CN(C)CC(=O)Nc1cccc(CN2C(=O)N(Cc3cccc(NC(=O)CN(C)C)c3)C(Cc3ccccc3)C(O)C(O)C2Cc2ccccc2)c1.Cl.Cl` (stereo not shown) [15N], the Ki [1, 6] was under 10 nM and the IC90 ([2]; Table 2d, class symbols) was “+++ (+++=<10 μg/mL)”.

In the case of `N#Cc1cccc(CN2C(=O)N(CCCCCO)C(Cc3ccccc3)C(O)C(O)C2Cc2ccccc2)c1` (stereo not shown) [Example 15VX], the Ki [1, 7] is reported as under 10 nM and the IC90 [2, 8] is reported as under 10 µg/mL.

`CNCC(=O)Nc1cccc(CN2C(=O)N(Cc3cccc(NC(=O)CNC)c3)C(Cc3ccccc3)C(O)C(O)C2Cc2ccccc2)c1.Cl.Cl` (stereo not shown) [15O] was tested, and the Ki [1, 6] was under 10 nM and the IC90 ([2]; Table 2d, class symbols) was “+++ (+++=<10 μg/mL)”.

Work on `O=C1N(Cc2cccnc2)C(Cc2ccccc2)C(O)C(O)C(Cc2ccccc2)N1Cc1cccc(CO)c1` (stereo not shown) [15WS] yielded a Ki [1, 7] of under 10 nM and an IC90 [2, 8] of under 10 µg/mL.

In the case of `C=CCN1C(=O)N(CC=C)C(Cc2ccccc2)C(O)C(O)C1Cc1ccccc1` (stereo not shown) [Example 13K], the Ki [1, 6] is reported as under 10 nM and the IC90 ([2]; Table 2d, class symbols) is reported as “+++ (+++=<10 μg/mL)”.

With `COC(=O)c1cc(CN2C(=O)N(Cc3ccc(F)c(C(=O)OC)c3)C(Cc3ccccc3)C(O)C(O)C2Cc2ccccc2)ccc1F` (stereo not shown) [15EE] the Ki [1, 3] was under 10 nM and the IC90 ([2]; Table 2d, HIV RNA assay) was “+ (+=>100 μg/mL)”.

`O=C1N(Cc2ccc(CO)o2)C(Cc2ccccc2)C(O)C(O)C(Cc2ccccc2)N1Cc1ccc(CO)o1` (stereo not shown) [Example 13X] was tested, and the Ki [1, 7] was 10 to 1000 nM and the IC90 [2, 8] was over 100 µg/mL.

In the case of `OCc1cccc(CN2C(=S)N(Cc3cccc(CO)c3)C(Cc3ccccc3)C(O)C(O)C2Cc2ccccc2)c1` (stereo not shown) [Example 27D], the Ki ([1]; Table 2q, read-out: HPLC Ki) is reported as under 10 nM and the IC90 ([2]; Table 2q) is reported as “+++ (+++=<10 μg/mL)”.

In the case of `CC(=O)OCCCCCCN1C(=O)N(CCCCCCO)C(Cc2ccccc2)C(O)C(O)C1Cc1ccccc1` (stereo not shown) [Example 12V], the Ki [1, 7] is reported as 10 to 1000 nM and the IC90 [2, 8] is reported as under 10 µg/mL.

In the case of `O=S1(=O)N(CCCCCO)C(Cc2ccccc2)C(O)C(O)C(Cc2ccccc2)N1Cc1ccc(CO)cc1` (stereo not shown) [23AG], the Ki ([1]; Table 2m, read-out: HPLC Ki) is reported as under 10 nM and the IC90 ([2]; Table 2m) is reported as “+++ (+++=<10 μg/mL)”.

Work on `CC(C)(C)Sc1ncccc1CN1C(=O)N(Cc2cccnc2SC(C)(C)C)C(Cc2ccccc2)C(O)C(O)C1Cc1ccccc1` (stereo not shown) [Example 14B] yielded a Ki [1, 7] of 10 to 1000 nM and an IC90 [2, 8] of under 10 µg/mL.

`O=C1N(CCCCCCO)C(Cc2ccccc2)C(O)C(O)C(Cc2ccccc2)N1CCCCCCO` (stereo not shown) [Example 12D] showed a Ki [1, 7] of under 10 nM and an IC90 [2, 8] of under 10 µg/mL.

With `Nc1cccc(CN2C(=O)N(Cc3ccc(CO)cc3)C(Cc3ccccc3)C(O)C(O)C2Cc2ccccc2)c1` (stereo not shown) [15A] the Ki [1, 7] was under 10 nM and the IC90 [2, 8] was under 10 µg/mL.

For `O=C1N(CC2CC2)C(CCc2ccccc2)[C@@H](O)[C@@H](Cc2ccccc2)N1CC1CC1` (stereo partly shown) [Example 8H], the Ki ([1]; read-out: Ki (HPLC), Table 1e, cells marked (HPLC)) was under 10 nM and the IC90 ([2]; Human immunodeficiency virus 1, MT2, Table 1e, read-out: IC90) was under 10 µg/mL.

For `N#Cc1cccc(CN2C(=O)N(Cc3cccc(C#N)c3)C(Cc3ccc(F)cc3)C(O)C(O)C2Cc2ccc(F)cc2)c1` (stereo not shown) [20O], the Ki ([1]; Table 2i, read-out: HPLC Ki) was 10 to 1000 nM and the IC90 ([2]; Table 2i) was “+++ (+++=<10 μg/mL)”.

In the case of `O=C1N(Cc2cccc(C=NCCO)c2)C(Cc2ccccc2)C(O)C(O)C(Cc2ccccc2)N1Cc1cccc(C2NCCO2)c1` (stereo not shown) [Example 9K], the Ki [1, 6] is reported as 10 to 1000 nM and the IC90 ([2]; Table 2d, class symbols) is reported as “+++ (+++=<10 μg/mL)”.

For `NC(=NO)c1cccc(CN2C(=O)N(Cc3cccc(C(N)=NO)c3)C(Cc3ccc(F)c(F)c3)C(O)C(O)C2Cc2ccc(F)c(F)c2)c1` (stereo not shown) [20AD], the Ki ([1]; Table 2i, read-out: HPLC Ki) was under 10 nM and the IC90 ([2]; Table 2i) was “+++ (+++=<10 μg/mL)”.

Work on `O=C1N(Cc2cccc(Cn3ccnc3)c2)C(Cc2ccccc2)C(O)C(O)C(Cc2ccccc2)N1Cc1cccc(Cn2ccnc2)c1` (stereo not shown) [Example 15XG] yielded a Ki [1, 4] of under 10 nM and an IC90 [2, 5] of under 10 µg/mL.

For `CCOC(=O)c1cccc(CN2C(=O)N(Cc3cccc(C(=O)OCC)c3)C(Cc3ccccc3)C(O)C(O)C2Cc2ccccc2)c1` (stereo not shown) [10W], the Ki [1, 6] was under 10 nM and the IC90 ([2]; Table 2d, class symbols) was “+ (+=>100 μg/mL)”.

In the case of `CC(=NO)c1cccc(CN2C(Cc3ccccc3)C(O)C(O)C(Cc3ccccc3)N(Cc3cccc(C(C)=NO)c3)S2(=O)=O)c1` (stereo not shown) [23U], the Ki ([1]; Table 2m, read-out: HPLC Ki) is reported as under 10 nM and the IC90 ([2]; Table 2m) is reported as “+++ (+++=<10 μg/mL)”.
